Columns and labels:
M13 CaM-BP [1] = assay: BLA-CaM chimera activity, nitrocefin assay with or without CaM-BP; type: biochemical
Source text: FIG. 5. Construction of β-lactamase single insert CaM chimeras (BLA-CaM). (A) A schematic showing th β-lactamase (BLA) assay. BLA degrades the beta-lactam ring nitrocefin. which can be detected by a colour change from yellow to red, for example using a wavelength λ=482 nm (wavelengths of λ=486 nm and λ=480 nm may also be used). […] (C) Activity of purified BLA-CaM chimeras in the presence (interrupted line) or absence (solid line) of saturating concentrations of M13 peptide. The insertion position is indicated by a number and a letter denoting deleted amino acid.
FIG. 6. Construction of B-lactamase double insert CaM chimeras (2CaM-BLA). (A) Activity analysis of a solution of 250 nM BLA-CaM 41G in the presence of 50 μM nitrocefin and in the presence (interrupted line) or absence (solid line) of 1 μM of M13 CaM-BP. […]
A range of insertion mutants of the enzyme β-lactamase (BLA) and calmodulin were constructed. β-lactamase degrades the beta-lactam ring in nitrocefin, which can be detected by a colour change from yellow to red (FIG. 5A). The β-lactamase structure (PDB: 3gmw) was analysed and a range of Calmodulin (BLA-CaM) chimeras were designed. […] The activity of the wild type β-lactamase as well as the BLA-CaM chimeras was monitored in the presence or absence of CaM-BP (M13). […]

M13 CaM-BP [2] = assay: GDH-CaM chimera activity, PMS/DCPIP assay with or without CaM-BP; type: biochemical; conditions: 10 nM chimera, presence vs absence of 1 μM M13 CaM-BP
Experimental: FIG. 11. Construction of a glucose dehydrogenase (GDH) AND gate biosensor. (A) GDH-CaM 48N activation by CaM-BP. activity analysis of a solution of 10 nM GDH-CaM 48N in the presence of 0.6 mM PMS as electron mediator and 60 μM DCPIP reporter dye in the presence of absence of 1 μM of M13 CaM-BP. (B) GDH-CaM 212N activation by CaM-BP. activity analysis of a solution of 10 nM GDH-CaM 212N in the presence of 0.6 mM PMS as electron mediator and 60 μM DCPIP reporter dye in the presence of absence of 1 μM of M13 CaM-BP. (C) GDH-CaM 48N_212N activation by CaM-BP. activity analysis of a solution of 10 nM GDH-CaM 48N_212N in the presence of 0.6 mM PMS as electron mediator and 60 μM DCPIP reporter dye in the presence of absence of 1 μM of M13 CaM-BP.
A range of insertion mutants of the enzyme glucose dehydrogenase (GDH) and calmodulin were constructed. […] The activity of GDH was monitored using 5-methylphenazinium methyl sulfate (PMS) as an electron mediator and 2,6-dichlorophenolindophenol (DCPIP) as a reporter dye, which upon reduction changes from blue to colourless. The GDH structure (PDB: 1c9u) was analysed and a library of CaM domain insertions was generated. […]
E.coli and purified to homogeneity. […] The activity of the wild type GDH as well as the GDH-CaM chimeras was monitored in the presence or absence of CaM-BP (M13). […]

Substance | activity retained compared to the wild type enzyme (M13 CaM-BP [1]; 10 nM enzyme, saturating M13 CaM-BP) | dynamic range (M13 CaM-BP [1]; 50 μM nitrocefin, presence vs absence of M13 CaM-BP) | dynamic range (M13 CaM-BP [2])
BLA-CaM 41G_197E: β-lactamase with calmodulin insertions at positions 41 and 197 | about 25% | over 7000 fold | –
GDH-CaM 48N_212N: Glucose dehydrogenase with calmodulin insertions at positions 48 and 212 | – | – | over 20 fold
